In brackets after ≈: the same amount, converted by molar mass.
Assays:
[1] = Rifalazil solubility in surfactants and surfactant mixtures; format: physicochemical; details: thermodynamic from solid
Description: The solubility of rifalazil in various surfactants and surfactant mixtures was measured. Excess Rifalazil, drug substance, was equilibrated with the excipient or excipient blend at the indicated temperature for 24 hrs under constant mixing. At the end of the equilibration time, insoluble drug was removed by centrifugation and the supernatant was assayed by UV spectroscopy and/or HPLC to determine the concentration of Rifalazil.

[2] = Pharmacokinetics after single peroral 5 mg rifalazil, fed and fasted; format: in vivo; details: liquid-filled vs microgranulated, beagle dogs
Description: Pharmacokinetic parameters were determined following a single peroral administration of 5 mg of rifalazil in healthy male beagle dogs. The rifalazil was formulated either as a liquid-filled capsule of Example 5 or as a powder-filled capsule containing microgranulated rifalazil as described in U.S. Pat. No. 5,547,683.
Both formulations were administered under fed and fasted conditions. All animals were fasted overnight prior to dosing. Animals designated as “fed” were administered a blended combination of dog chow and water in a 1:3 ratio (e.g. 250 g chow and 750 g water) via oral gavage at a dose volume of 20 mL/kg within approximately 30 minutes prior to dosing and food was provided Ad-libitum after approximately 4 hours following dosing. Animals in “fasted” groups were not fed prior to dosing and food was withheld until after approximately 4 hours after dosing. […]
Pharmacokinetic endpoints and parameters were calculated by noncompartmental analysis (NCA) using WinNonlin®.
The pharmacokinetic parameters Tmax, Cmax, AUCt, AUC∞, T1/2 (elimination), and F (bioavailability) were calculated as well as the coefficient of variation (CV) in each. […]

## CO[C@H]1/C=C/O[C@@]2(C)Oc3c(C)c(O)c4c(=O)c(c5oc6cc(N7CCN(CC(C)C)CC7)cc(O)c6nc-5c4c3C2=O)NC(=O)/C(C)=C\C=C\[C@H](C)[C@H](O)[C@@H](C)[C@@H](O)[C@@H](C)[C@H](OC(C)=O)[C@@H]1C [Rifalazil]
[1]; Formulation M1 (excipient blend), aqueous with cosolvent or surfactant or cyclodextrin, in Formulation M1, 24 hrs equilibration
  solubility at 24 h: 15.5 mg/mL (≈ 16.5 mM)
[1]; Formulation M3 (excipient blend), aqueous with cosolvent or surfactant or cyclodextrin, in Formulation M3, 24 hrs equilibration
  solubility at 24 h: 25.8 mg/mL (≈ 27.4 mM)
[1]; Formulation M4 (excipient blend), aqueous with cosolvent or surfactant or cyclodextrin, in Formulation M4, 24 hrs equilibration
  solubility at 24 h: 34.1 mg/mL (≈ 36.2 mM)
[1]; Formulation M5 (excipient blend), aqueous with cosolvent or surfactant or cyclodextrin, in Formulation M5, 24 hrs equilibration
  solubility at 24 h: 28.4 mg/mL (≈ 30.1 mM)
[1]; Formulation M6 (excipient blend), aqueous with cosolvent or surfactant or cyclodextrin, in Formulation M6, 24 hrs equilibration
  solubility at 24 h: 30.8 mg/mL (≈ 32.8 mM)
[1]; Formulation M8 (excipient blend), aqueous with cosolvent or surfactant or cyclodextrin, in Formulation M8, 24 hrs equilibration
  solubility at 24 h: 26.9 mg/mL (≈ 28.6 mM)
[1]; Formulation M9 (excipient blend), aqueous with cosolvent or surfactant or cyclodextrin, in Formulation M9, 24 hrs equilibration
  solubility at 24 h: 19.6 mg/mL (≈ 20.8 mM)
[1]; Formulation M10 (excipient blend), aqueous with cosolvent or surfactant or cyclodextrin, in Formulation M10, 24 hrs equilibration
  solubility at 24 h: 36.9 mg/mL (≈ 39.2 mM)
[1]; Formulations A and B (excipient blend), aqueous with cosolvent or surfactant or cyclodextrin, in Formulations A and B, 24 hrs equilibration
  solubility at 24 h: 23 mg/mL (≈ 24.4 mM)
[1]; Formulations C and D (excipient blend), aqueous with cosolvent or surfactant or cyclodextrin, in Formulations C and D, 24 hrs equilibration
  solubility at 24 h: 21 mg/mL (≈ 22.3 mM)
[1]; aqueous with cosolvent or surfactant or cyclodextrin, in Cremophor ELP, 24 hrs equilibration at 37° C.
  solubility at 24 h: 35 mg/mL (≈ 37.2 mM)
[1]; aqueous with cosolvent or surfactant or cyclodextrin, in Cremophor RH40, 24 hrs equilibration at 37° C.
  solubility at 24 h: 23 mg/mL (≈ 24.4 mM)
[1]; aqueous with cosolvent or surfactant or cyclodextrin, in Labrafil M 1944 CS, 24 hrs equilibration
  solubility at 24 h: 41.6 mg/mL (≈ 44.2 mM)
[1]; aqueous with cosolvent or surfactant or cyclodextrin, in Labrafil M 19944 CS:Etocas 35 (5:1), 24 hrs equilibration
  solubility at 24 h: 29 mg/mL (≈ 30.8 mM)
[1]; aqueous with cosolvent or surfactant or cyclodextrin, in Labrasol, 24 hrs equilibration
  solubility at 24 h: 23 mg/mL (≈ 24.4 mM)
[1]; aqueous with cosolvent or surfactant or cyclodextrin, in Lauroglycol 90, 24 hrs equilibration
  solubility at 24 h: 40 mg/mL (≈ 42.5 mM)
[1]; aqueous with cosolvent or surfactant or cyclodextrin, in TPGS, 24 hrs equilibration at 37° C.
  solubility at 24 h: 22 mg/mL (≈ 23.4 mM)
[1]; oil or lipid, in Oleic Acid, 24 hrs equilibration
  solubility at 24 h: 59 mg/mL (≈ 62.7 mM)
[1]; oil or lipid, in Peceol, 24 hrs equilibration
  solubility at 24 h: 14 mg/mL (≈ 14.9 mM)
[1]; organic solvent or mixture, in PEG 400, 24 hrs equilibration
  solubility at 24 h: 8 mg/mL (≈ 8.5 mM)
[1]; organic solvent or mixture, in PEG 1500, equilibration at 60° C. to melt PEG 1500
  solubility at 24 h: 62 mg/mL (≈ 65.9 mM)
[2]
  effect of changes in the formulation upon the elimination half-life (T1/2): no effect
